Measurements published in article PMC8352719 (The Journal of General Physiology, 2021).

Target: BKα/γ1 channels (Homo sapiens, UniProt Q12791)
Experiment: Whole-cell recordings from HEK-293T cells overexpressing BKα/γ1 channels
Type: cell-based

Sequence of BKα/γ1 channels (Q12791 whole entry): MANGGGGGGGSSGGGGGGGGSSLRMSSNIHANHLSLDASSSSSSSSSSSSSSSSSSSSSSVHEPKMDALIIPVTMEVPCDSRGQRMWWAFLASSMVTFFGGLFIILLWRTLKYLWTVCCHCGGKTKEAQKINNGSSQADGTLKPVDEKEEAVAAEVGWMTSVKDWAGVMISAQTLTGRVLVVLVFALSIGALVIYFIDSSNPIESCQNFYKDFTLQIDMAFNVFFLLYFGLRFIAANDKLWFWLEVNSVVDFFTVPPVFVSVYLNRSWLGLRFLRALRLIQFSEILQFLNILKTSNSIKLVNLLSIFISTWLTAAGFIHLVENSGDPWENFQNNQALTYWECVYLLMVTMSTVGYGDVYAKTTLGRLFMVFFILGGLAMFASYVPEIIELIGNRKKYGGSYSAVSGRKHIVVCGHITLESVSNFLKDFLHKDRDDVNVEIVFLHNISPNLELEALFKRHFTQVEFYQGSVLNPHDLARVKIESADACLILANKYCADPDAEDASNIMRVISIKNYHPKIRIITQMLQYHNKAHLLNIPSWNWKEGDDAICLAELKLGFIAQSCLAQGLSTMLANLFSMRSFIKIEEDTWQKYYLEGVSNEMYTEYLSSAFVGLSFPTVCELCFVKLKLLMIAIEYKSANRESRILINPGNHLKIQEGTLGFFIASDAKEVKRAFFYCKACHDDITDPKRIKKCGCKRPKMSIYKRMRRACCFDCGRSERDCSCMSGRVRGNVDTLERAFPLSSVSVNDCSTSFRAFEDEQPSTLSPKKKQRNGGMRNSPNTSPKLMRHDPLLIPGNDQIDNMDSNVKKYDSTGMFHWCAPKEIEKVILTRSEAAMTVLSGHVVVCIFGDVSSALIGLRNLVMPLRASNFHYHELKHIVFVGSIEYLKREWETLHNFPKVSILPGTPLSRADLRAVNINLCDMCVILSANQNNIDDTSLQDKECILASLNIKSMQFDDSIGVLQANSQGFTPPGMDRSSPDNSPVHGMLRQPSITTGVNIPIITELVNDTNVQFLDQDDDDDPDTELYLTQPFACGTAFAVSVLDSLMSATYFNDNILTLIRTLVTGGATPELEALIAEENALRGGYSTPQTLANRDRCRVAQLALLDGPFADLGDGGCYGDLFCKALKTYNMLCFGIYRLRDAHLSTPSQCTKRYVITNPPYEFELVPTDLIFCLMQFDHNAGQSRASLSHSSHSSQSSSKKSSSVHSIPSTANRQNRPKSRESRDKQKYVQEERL
Sequence of BKα/γ1 channels (Q2I0M4 27-334 partner): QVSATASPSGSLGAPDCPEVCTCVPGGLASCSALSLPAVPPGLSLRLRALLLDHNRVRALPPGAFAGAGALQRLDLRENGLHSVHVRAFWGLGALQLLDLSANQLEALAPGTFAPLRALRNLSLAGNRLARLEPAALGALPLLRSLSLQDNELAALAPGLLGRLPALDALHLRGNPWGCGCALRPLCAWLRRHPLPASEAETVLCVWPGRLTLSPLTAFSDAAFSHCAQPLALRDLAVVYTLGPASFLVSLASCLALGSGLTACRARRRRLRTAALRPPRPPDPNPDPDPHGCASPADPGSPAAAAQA

SMILES: CC[N+](CC)(CC)CC [TEA]
- fractional current not blocked (1 mM extracellular TEA): 0.082 ± 0.0007
- time constant to reach equilibrium (bath application of 1 mM TEA): 8.4 ± 1 s
- τ of exponential fit (c) (representative experiment Fig. 5 A, back to 0 LOP/0 TEA at t = 17 min): 13.2 s
- τ of exponential fit (b) (representative experiment Fig. 5 A, switch to 1 mM TEA at t = 15 min): 7.3 s
